Measurements: US11802111B2, “Cyclobutyl amide monoacylglycerol lipase modulators” (Janssen Pharmaceutica NV, priority 2020, dated 2023)

target: human MGL from HeLa cells (Homo sapiens (Human), UniProt Q99685); test: MGL in vitro activity assay ([glycerol-1,3-3H]-oleoyl glycerol hydrolysis, activated carbon filtration); type: biochemical; details: 300 nM [Glycerol-1,3-3H]-oleoyl glycerol, one hour
Outline: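 Activity measured as tritium in the flow-through after activated carbon filtration of a 1 h reaction containing 300 nM 3H-oleoyl glycerol, compound and HeLa-derived human MGL. Compounds screened at 10 μM; IC50 series start at an empirically chosen highest concentration.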

Sequence of human MGL from HeLa cells (Q99685 whole entry): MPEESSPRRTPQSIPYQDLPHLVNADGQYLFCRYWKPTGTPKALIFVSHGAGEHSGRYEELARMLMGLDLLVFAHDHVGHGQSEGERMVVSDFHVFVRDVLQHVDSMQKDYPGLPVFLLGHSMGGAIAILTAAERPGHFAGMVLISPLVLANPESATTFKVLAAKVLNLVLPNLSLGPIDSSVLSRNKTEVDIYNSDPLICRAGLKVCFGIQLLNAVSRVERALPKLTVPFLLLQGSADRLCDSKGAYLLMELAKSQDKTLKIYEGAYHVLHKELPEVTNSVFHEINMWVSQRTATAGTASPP

| SMILES | IC50 |
| --- | --- |
| C[C@]1(O)C[C@@H](C(=O)N2CC3(CCC(Cc4ccc(OC(F)F)cc4)C3)C2)C1 (mixture of isomers) [Example 183, (rac)-(6-(4-(Difluoromethoxy)benzyl)-2-azaspiro[3.4]octan-2-yl)((1s,3s)-3-hydroxy-3-methylcyclobutyl)methanone] | 48 nM |
| CC(C)(C)c1cccc(C2CCC3(C2)CN(C(=O)[C@H]2C[C@@](C)(O)C2)C3)c1 (mixture of isomers) [Example 43, (rac)-(6-(3-(tert-Butyl)phenyl)-2-azaspiro[3.4]octan-2-yl)((1s,3s)-3-hydroxy-3-methylcyclobutyl)methanone] | 6.9 nM |
| COc1c(C)cccc1C1CCC2(C1)CN(C(=O)[C@H]1C[C@@](C)(O)C1)C2 (mixture of isomers) [Example 95, (rac)-((1s,3s)-3-Hydroxy-3-methylcyclobutyl)(6-(2-methoxy-3-methylphenyl)-2-azaspiro[3.4]octan-2-yl)methanone] | 290 nM |
| CC(C)n1ccc2ccc(CC3CC4(C3)CN(C(=O)C3CC(C)(O)C3)C4)nc21 (centres unmarked) [Example 289, ((1s,3s)-3-Hydroxy-3-methylcyclobutyl)(6-((1-isopropyl-1H-pyrrolo[2,3-b]pyridin-6-yl)methyl)-2-azaspiro[3.3]heptan-2-yl)methanone] | 8.2 nM |
| Cn1ncc2cc(C3CCC4(CC3)CN(C(=O)[C@H]3C[C@@](C)(O)C3)C4)ccc21 [Example 122, ((1s,3s)-3-Hydroxy-3-methylcyclobutyl)(7-(1-methyl-1H-indazol-5-yl)-2-azaspiro[3.5]nonan-2-yl)methanone] | 143 nM |
| CCc1cccc(C2CCC3(C2)CN(C(=O)[C@H]2C[C@@](C)(O)C2)C3)c1 (mixture of isomers) [Example 91, (rac)-(6-(3-Ethylphenyl)-2-azaspiro[3.4]octan-2-yl)((1s,3s)-3-hydroxy-3-methylcyclobutyl)methanone] | 58 nM |
| Cc1c(C2CCC3(C2)CN(C(=O)[C@H]2C[C@@](C)(O)C2)C3)cccc1C(F)(F)F (mixture of isomers) [Example 7, (rac)-((1s,3s)-3-Hydroxy-3-methylcyclobutyl)(6-(2-methyl-3-(trifluoromethyl)phenyl)-2-azaspiro[3.4]octan-2-yl)methanone] | 10 nM |
| C[C@]1(O)C[C@@H](C(=O)N2CC3(CCC(c4ccc5c(c4)CCC5)CC3)C2)C1 [Example 127, (7-(2,3-Dihydro-1H-inden-5-yl)-2-azaspiro[3.5]nonan-2-yl)((1s,3s)-3-hydroxy-3-methylcyclobutyl)methanone] | 14 nM |
| COc1cccc(C2CCC3(C2)CN(C(=O)[C@H]2C[C@@](C)(O)C2)C3)c1C (mixture of isomers) [Example 13, (rac)-((1s,3s)-3-Hydroxy-3-methylcyclobutyl)(6-(3-methoxy-2-methylphenyl)-2-azaspiro[3.4]octan-2-yl)methanone] | 159 nM |
| Cc1cc(C2CC3(C2)CN(C(=O)[C@H]2C[C@@](C)(O)C2)C3)ccc1C(F)(F)F [Example 33, ((1s,3s)-3-Hydroxy-3-methylcyclobutyl)(6-(3-methyl-4-(trifluoromethyl)phenyl)-2-azaspiro[3.3]heptan-2-yl)methanone] | 246 nM |
| Cc1cc(Cl)ccc1C1CCC2(C1)CN(C(=O)[C@H]1C[C@@](C)(O)C1)C2 (mixture of isomers) [Example 10, (rac)-(6-(4-Chloro-2-methylphenyl)-2-azaspiro[3.4]octan-2-yl)((1s,3s)-3-hydroxy-3-methylcyclobutyl)methanone] | 22 nM |
| C[C@]1(O)C[C@@H](C(=O)N2CC3(CCC(Cc4cccc(C(F)F)c4)CC3)C2)C1 [Example 163, (7-(3-(Difluoromethyl)benzyl)-2-azaspiro[3.5]nonan-2-yl)((1s,3s)-3-hydroxy-3-methylcyclobutyl)methanone] | 61 nM |
| C[C@]1(O)C[C@@H](C(=O)N2CC3(CC[C@@H](Cc4cccc(C(F)(F)F)c4)C3)C2)C1 (stereo in doubt) [Example 178, ((1s,3*R)-3-Hydroxy-3-methylcyclobutyl)((*S)-6-(3-(trifluoromethyl)benzyl)-2-azaspiro[3.4]octan-2-yl)methanone] | 11 nM |

Other lines, results leading:

| IC50 | SMILES |
| --- | --- |
| 19 nM | Cc1ccc(OC2CCC3(CC2)CN(C(=O)[C@H]2C[C@](O)(C(F)F)C2)C3)nc1C(F)(F)F [Example 453, ((1s,3s)-3-(Difluoromethyl)-3-hydroxycyclobutyl)(7-((5-methyl-6-(trifluoromethyl)pyridin-2-yl)oxy)-2-azaspiro[3.5]nonan-2-yl)methanone] |
| 71 nM | Cc1cnc(OC2CCC3(CC2)CN(C(=O)[C@H]2C[C@@](C)(O)C2)C3)c(F)c1 [Example 432, (7-((3-Fluoro-5-methylpyridin-2-yl)oxy)-2-azaspiro[3.5]nonan-2-yl)((1s,3s)-3-hydroxy-3-methylcyclobutyl)methanone] |
| 101 nM | Cn1ccc2ccc(C3(F)CCC4(CC3)CN(C(=O)[C@H]3C[C@@](C)(O)C3)C4)nc21 [Example 341, (7-Fluoro-7-(1-methyl-1H-pyrrolo[2,3-b]pyridin-6-yl)-2-azaspiro[3.5]nonan-2-yl)((1s,3s)-3-hydroxy-3-methylcyclobutyl)methanone] |
| 21 nM | Cc1nn(C)c2cc(CC3CC4(C3)CN(C(=O)[C@H]3C[C@@](C)(O)C3)C4)ccc12 [Example 302, (6-((1,3-Dimethyl-1H-indazol-6-yl)methyl)-2-azaspiro[3.3]heptan-2-yl)((1s,3s)-3-hydroxy-3-methylcyclobutyl)methanone] |
| 97 nM | Cc1ccc(F)c(OC2CCC3(CC2)CN(C(=O)[C@H]2C[C@@](C)(O)C2)C3)n1 [Example 431, (7-((3-Fluoro-6-methylpyridin-2-yl)oxy)-2-azaspiro[3.5]nonan-2-yl)((1s,3s)-3-hydroxy-3-methylcyclobutyl)methanone] |
| 99 nM | C[C@]1(O)C[C@@H](C(=O)N2CC3(CCC(Oc4ccc(C(F)(F)F)nc4)CC3)C2)C1 [Example 424, ((1s,3s)-3-Hydroxy-3-methylcyclobutyl)(7-((6-(trifluoromethyl)pyridin-3-yl)oxy)-2-azaspiro[3.5]nonan-2-yl)methanone] |
| 507 nM | Cn1ccc2ccc(C3CC4(C3)CN(C(=O)[C@H]3C[C@@](C)(O)C3)C4)nc21 [Example 269, ((1s,3s)-3-Hydroxy-3-methylcyclobutyl)(6-(1-methyl-1H-pyrrolo[2,3-b]pyridin-6-yl)-2-azaspiro[3.3]heptan-2-yl)methanone] |
| 26 nM | Cc1cc2ccc(OC3CCC4(CC3)CN(C(=O)[C@H]3C[C@@](C)(O)C3)C4)nc2n1C [Example 472, (7-((1,2-Dimethyl-1H-pyrrolo[2,3-b]pyridin-6-yl)oxy)-2-azaspiro[3.5]nonan-2-yl)((1s,3s)-3-hydroxy-3-methylcyclobutyl)methanone] |
| 23 nM | C[C@]1(O)C[C@@H](C(=O)N2CC3(CCC(c4ccn(-c5ccccc5)n4)CC3)C2)C1 [Example 380, ((1s,3s)-3-Hydroxy-3-methylcyclobutyl)(7-(1-phenyl-1H-pyrazol-3-yl)-2-azaspiro[3.5]nonan-2-yl)methanone] |
| 5.3 nM | CC(C)(C)c1ccccc1CC1CC2(C1)CN(C(=O)[C@H]1C[C@@](C)(O)C1)C2 [Example 208, (6-(2-(tert-Butyl)benzyl)-2-azaspiro[3.3]heptan-2-yl)((1s,3s)-3-hydroxy-3-methylcyclobutyl)methanone] |
| 523 nM | Cc1cc(C)cc([C@H]2CC[C@]3(CC2)CN(C(=O)[C@H]2C[C@@](C)(O)C2)[C@@H]3C)c1 (stereo in doubt) [Example 349, ((1*R,4r,7*R)-7-(3,5-Dimethylphenyl)-1-methyl-2-azaspiro[3.5]nonan-2-yl)((1s,3*S)-3-hydroxy-3-methylcyclobutyl)methanone] |
| 22 nM | CCOc1cc(F)cc(C2CCC3(CC2)CN(C(=O)[C@H]2C[C@@](C)(O)C2)C3)c1 [Example 365, (7-(3-Ethoxy-5-fluorophenyl)-2-azaspiro[3.5]nonan-2-yl)((1s,3s)-3-hydroxy-3-methylcyclobutyl)methanone] |
| 65 nM | Cc1cc(C2CC3(C2)CN(C(=O)[C@H]2C[C@@](C)(O)C2)C3)cc(C(F)(F)F)c1 [Example 267, ((1s,3s)-3-Hydroxy-3-methylcyclobutyl)(6-(3-methyl-5-(trifluoromethyl)phenyl)-2-azaspiro[3.3]heptan-2-yl)methanone] |
| 7240 nM | C[C@]1(O)C[C@@H](C(=O)N2CC3(CCC(c4cn5c(n4)CCCC5)CC3)C2)C1 [Example 396, ((1s,3s)-3-Hydroxy-3-methylcyclobutyl)(7-(5,6,7,8-tetrahydroimidazo[1,2-a]pyridin-2-yl)-2-azaspiro[3.5]nonan-2-yl)methanone] |
| 3290 nM | COC1(Cc2ccccc2)CC2(CN(C(=O)[C@H]3C[C@@](C)(O)C3)C2)C1 [Example 270, (6-Benzyl-6-methoxy-2-azaspiro[3.3]heptan-2-yl)((1s,3s)-3-hydroxy-3-methylcyclobutyl)methanone] |
| 354 nM | C[C@]1(O)C[C@@H](C(=O)N2CC3(CCC(c4cc5n(n4)CCCC5)CC3)C2)C1 [Example 395, ((1s,3s)-3-Hydroxy-3-methylcyclobutyl)(7-(4,5,6,7-tetrahydropyrazolo[1,5-a]pyridin-2-yl)-2-azaspiro[3.5]nonan-2-yl)methanone] |
| 77 nM | Cc1cc(C)cc([C@H]2CC[C@@]3(CC2)CN(C(=O)[C@H]2C[C@@](C)(O)C2)[C@@H]3C)c1 (stereo in doubt) [Example 351, ((1*R,4s,7*S)-7-(3,5-Dimethylphenyl)-1-methyl-2-azaspiro[3.5]nonan-2-yl)((1s,3*S)-3-hydroxy-3-methylcyclobutyl)methanone] |
| 33 nM | CCC1(Oc2ccc(C(F)(F)F)cn2)CCC2(CC1)CN(C(=O)[C@H]1C[C@@](C)(O)C1)C2 [Example 420, (7-Ethyl-7-((5-(trifluoromethyl)pyridin-2-yl)oxy)-2-azaspiro[3.5]nonan-2-yl)((1s,3s)-3-hydroxy-3-methylcyclobutyl)methanone] |
| 25 nM | Cc1nc(OC2CCC3(CC2)CN(C(=O)[C@H]2C[C@@](C)(O)C2)C3)ccc1Cl [Example 434, (7-((5-Chloro-6-methylpyridin-2-yl)oxy)-2-azaspiro[3.5]nonan-2-yl)((1s,3s)-3-hydroxy-3-methylcyclobutyl)methanone] |
